Laboratory results as given in article PMC5458211, “Mitochondrial VDAC1-based peptides: Attacking oncogenic properties in glioblastoma” (Oncotarget, 2017).
Non-standard residues stand in square brackets, D forms with d. Residues, ends and D or L forms follow the SMILES beside them.

How the values were obtained:
[1] = system: metabolic enzymes and transporters; assay: Expression of energy- and metabolism-related proteins in treated tumors (IHC, immunoblot); type: in vivo, human U-87MG in nude mice; details: for VDAC1 staining: treated tumors vs strong staining in PBS/DMSO
Source text: Figure 5 VDAC1-based peptide-treated tumors show marked changes in the expression of energy- and metabolism-related enzymes Dissected tumors were subjected to immunohistochemistry as described in Experimental Procedures. A, B. Representative sections from PBS/DMSO- and Tf-D-LP4-TTs were IHC stained for Glut-1, HK-I, HK-II, GAPDH, LDH, VDAC1, CS, Complex IVc and ATP synthase 5a are presented. Sections were also hematoxylin-stained and visualized by microscopy. C. Tissue lysates obtained from controls and several Tf-D-LP4-TTs were immunoblotted for HK-I, HK-II, VDAC1, GAPDH, LDH, CS, and ATP synthase 5a. D. Quantitative analysis of immunoblots is shown (n=2-4).
Formalin-fixed, paraffin-embedded sections of control and peptide-TTs were hematoxylin-eosin stained, probed with appropriate antibodies via IHC staining or immunoblotting of cells and tissue extracts. […]
10 ml of aqueous solution containing 1% PVA (w/v). The software. These experimental protocols were approved by mixtures were stirred continuously at room temperature the Institutional Animal Care and Use Committee of Ben-until complete evaporation of the organic solvent. The Gurion University. […]
HBSS solution. Cells or tumor tissue were lysed using lysis buffer (50 mM Tris-HCl, pH 7.5, 150 mM NaCl, 1
Xenograft and intracranial-orthotopic mouse mM EDTA, 1.5 mM MgCl2, 10% glycerol, 1% Triton models X-100, supplemented with a protease inhibitor cocktail
(Calbiochem, UK). Cell lysates were then centrifuged at U-87MG glioblastoma cells (3 x106) were inoculated 600xg (10 min at 4°C) and samples (10-40 μg of protein) s.c. into the hind leg ﬂanks of athymic eight-week old were subjected to SDS-PAGE and immunoblotting male nude mice (Envigo). Thirteen days post-inoculation, using various primary antibodies (sources and dilutions tumor volume was measured and calculated (100-130 as detailed in supplementary Table 2), followed by mm3) and mice were randomized into three groups (5 the appropriate HRP-conjugated secondary antibodies mice/group). Each treatment substance was injected into (i.e., anti-mouse, anti-rabbit or anti-goat). Blots the established s,c. tumors using PBS containing 0.26% were developed using enhanced chemiluminescence DMSO or peptide in PBS, 0.26% DMSO/20 μM). The (Biological Industries). Band intensities were analyzed xenografts were injected 20 µl per tumor (2 points) every by densitometry using Multi Gauge software (Fujifilm) two days. Beginning on the day of inoculation, mouse and the values were normalized to the intensities of the weight and tumor volume were monitored twice a week appropriate β-actin signal that served as a loading control. for a period of 23 days using a digital caliper. At the end of the experiments, the mice were sacrificed, tumors were IHC of tumor tissue sections excised and ex vivo weight was determined. Half of each tumor was either fixed in 4% buffered formaldehyde, IHC staining was performed on 5 μm-thick paraffin-embedded and processed for IHC or frozen in formalin-fixed and paraffin-embedded tumor tissue liquid nitrogen for later immunoblot analysis. sections. The sections were deparaffinized by placing To generate an intracranial-orthotopic mouse model, the slides at 60°C for 1 h and using xylene. […]
(Stoelting, Wood Dale, IL). A middle incision was made c, cytochrome c oxidase subunit IVc, GAPDH, Glut1, on the skull and a burr hole was introduced 0.5 mm HK-II, Klf4, LDH, Nestin, NGFR, P53, SMAC/Diablo, anterior to the bregma and 2.5 mm lateral to the midline Sox2, S100b, VDAC1) was performed in 0.01 M citrate using a drill (Stoelting). A 31-gauge needle loaded with buffer (pH 6.0). For CD31, HK-I and Ki-67, antigen 10 µL PBS was used to deliver tumor cells. The needle retrieval was performed in 10 mM Tris-EDTA (pH 9) and tip was inserted into the brain 3 mm deep, relative to the 0.5 M Tris (pH 10), for 30 minutes each at 95-98°C. After […]

U-87MG xenograft tumors = assay: TUNEL staining of xenograft tumor sections; type: in vivo, human U-87MG in nude mice; details: s.c. U-87MG tumor sections; Fig 4A
Source text: Red color indicates PI nuclear staining and green color TUNEL staining. B. Representative sections from PBS/DMSO- and peptide-TTs IHC stained for p53, Cyto c, AIF, Caspase 3 and Smac/Diablo and then hematoxylin-stained and visualized by microscopy. C. Tissue lysates obtained from controls and several Tf-D-LP4-TTs were immunoblotted for p53, Caspase 8, Cyto c, Smac/Diablo, Caspase 3 and Bcl-2. D. Quantitative analysis of immunoblots is shown (n=2-4).
Paraffin-embedded -fixed tumors sections were processed for a TUNEL assay using the DeadEnd Fluorometric TUNEL system (Promega) according to the manufacturer's instructions. Sections were deparaffinized, equilibrated in PBS, permeabilized with proteinase K, post-fixed in 4% paraformaldehyde, and incubated in TdT reaction mix for 1 h at 37 °C in the dark. Slides were then washed in 2X SSC buffer and counterstained with propidium iodide (1 μg/ml), and cover-slipped with Vectashield mounting medium. Fluorescent images of apoptotic cells (green) and cell nuclei (red) were captured using a confocal microscope (Olympus 1×81).

Row | SMILES | VDAC1 staining [1] | TUNEL-positive cells (U-87MG xenograft tumors) | ATP synthase subunit 5a expression ([1]; treated tumors vs PBS/DMSO) | GAPDH level ([1]; treated tumors vs PBS/DMSO) | Glut-1 level ([1]; treated tumors vs PBS/DMSO) | HK-I level ([1]; treated tumors vs PBS/DMSO) | HK-II level ([1]; treated tumors vs PBS/DMSO) | LDH level ([1]; treated tumors vs PBS/DMSO) | citrate synthase (CS) expression ([1]; treated tumors vs PBS/DMSO) | complex IVc expression ([1]; treated tumors vs PBS/DMSO)
1 | CC[C@@H](C)[C@@H](NC(=O)[C@@H](CCCCN)NC(=O)[C@H](NC(=O)[C@@H](CCC(N)=O)NC(=O)[C@@H](CCCNC(=N)N)NC(=O)[C@@H](CC(C)C)NC(=O)CNC(=O)[C@@H](Cc1ccccc1)NC(=O)CNC(=O)[C@@H](Cc1ccc(O)cc1)NC(=O)CNC(=O)[C@@H](CCCCN)NC(=O)[C@H](NC(=O)[C@@H](Cc1ccccc1)NC(=O)[C@H](NC(=O)[C@@H](CC(=O)O)NC(=O)[C@H](N)CCCNC(=N)N)C(C)C)[C@H](C)O)[C@H](C)CC)C(=O)N[C@H](Cc1c[nH]c2ccccc12)C(=O)N[C@H](Cc1ccccc1)C(=O)N[C@H](CCC(N)=O)C(=O)N[C@H](CC(N)=O)C(=O)N[C@H](CCCNC(=N)N)C(=O)N[C@H](CCCNC(=N)N)C(=O)N[C@H](CCSC)C(=O)N[C@H](CCCCN)C(=O)N[C@H](Cc1c[nH]c2ccccc12)C(=O)N[C@H](CCCCN)C(=O)N[C@H](CCCCN)C(=O)O [D-ΔN-Ter-Antp] (H-[dR][dD][dV][dF][dT][dK]G[dY]G[dF]G[dL][dR][dQ][dI][dK][dI][dW][dF][dQ][dN][dR][dR][dM][dK][dW][dK][dK]-OH; N-terminus and C-terminus assumed) | only very weak staining | the majority of the cells were TUNEL-positive |  |  |  |  |  |  |  | 
2 | CC[C@H](C)[C@H](NC(=O)[C@H](C)NC(=O)[C@@H](N)Cc1c[nH]cn1)C(=O)N[C@@H](Cc1ccc(O)cc1)C(=O)N1CCC[C@H]1C(=O)N[C@@H](CCCNC(=N)N)C(=O)N[C@@H](Cc1c[nH]cn1)C(=O)N[C@@H](CO)C(=O)N[C@@H](Cc1c[nH]c2ccccc12)C(=O)N[C@H](C(=O)N[C@@H](Cc1c[nH]c2ccccc12)C(=O)N[C@@H](CCC(=O)O)C(=O)N[C@H](CCCCN)C(=O)N[C@H](CCCCN)C(=O)N[C@H](CC(C)C)C(=O)N[C@H](CCC(=O)O)C(=O)N[C@@H](C(=O)N[C@H](C)C(=O)N[C@@H](C(=O)N[C@H](CC(N)=O)C(=O)N[C@H](CC(C)C)C(=O)N[C@H](C)C(=O)N[C@H](Cc1c[nH]c2ccccc12)C(=O)N[C@@H](C(=O)N[C@H](C)C(=O)NCC(=O)N[C@H](CC(N)=O)C(=O)N[C@H](CO)C(=O)N[C@H](CC(N)=O)C(=O)N[C@@H](CCCCN)C(=O)N[C@@H](Cc1c[nH]c2ccccc12)C(=O)N[C@H](C(=O)N[C@@H](Cc1c[nH]c2ccccc12)C(=O)N[C@@H](CCCCN)C(=O)O)[C@@H](C)O)[C@H](C)O)C(C)C)[C@H](C)O)[C@@H](C)O [Tf-D-LP4] | only very weak staining | the majority of the cells were TUNEL-positive | markedly lower | dramatically lower | dramatically lower | dramatically lower | dramatically lower | dramatically lower | markedly lower | markedly lower
